# According to patent US12617779B2, “Self degradation-type CDK9 inhibitor prodrug and liposome encapsulating same” (Sumitomo Pharma Co., Ltd., priority 2021, dated 2026):
# Legend:
# [1] = Evaluation of conversion rate to active form in buffer solution (Experimental Example 1); assay type: physicochemical; conditions: for Production rate of Alvocidib / Residual rate: 37° C., 25 umol/L in buffer solution
# Procedure, shortened: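 Stability across pH: 25 umol/L, 37° C, 50 mM citrate/phosphate, pH 5.0–7.4. Sampling at 0, 0.5, 1, 2, 3 h; HPLC determined loss of compound and Alvocidib generated.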
# [2] = Pharmacokinetic test, intravenous solution and liposome formulations in mice (Experimental Example 6); assay type: in vivo; conditions: female BALB/c mice
# Procedure, shortened: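 Solution or liposome formulation (ammonium sulfate-loaded HSPC/cholesterol/PEG-lipid liposomes, outer buffer 10 mM tartrate/10% sucrose pH 4) given IV to 7-week-old female BALB/c mice. Jugular blood sampled without anesthesia up to 24 h (solution) or 72 h (liposome); test compound and Alvocidib in plasma measured by LC-MS/MS.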
smiles,measurement,setting,value
"CCN(C[C@H]1CCCCN1)C(=O)Oc1cc(O)c2c(=O)cc(-c3ccccc3Cl)oc2c1[C@H]1CCN(C)C[C@H]1O [Example 2, 2-(2-chlorophenyl)-5-hydroxy-8-[(3S,4R)-3-hydroxy-1-methylpiperidin-4-yl]-4-oxo-4H-1-benzopyran-7-yl ethyl{[(2R)-piperidin-2-yl]methyl}carbamate]",Production rate of Alvocidib,"[1]; pH5.0, 0 hr",0.0%
same,Residual rate,"[1]; pH5.0, 0 hr",95.5%
same,Stability in buffer solution at pH 5,"[1]; pH 5, 37° C., up to 2 or 3 hours",stable
same,Production rate of Alvocidib,"[1]; pH5.0, 0.5 hr",0.3%
same,Residual rate,"[1]; pH5.0, 0.5 hr",95.4%
same,Production rate of Alvocidib,"[1]; pH5.0, 1 hr",0.5%
same,Residual rate,"[1]; pH5.0, 1 hr",95.1%
same,Production rate of Alvocidib,"[1]; pH5.0, 2 hr",1.1%
same,Residual rate,"[1]; pH5.0, 2 hr",94.7%
same,Production rate of Alvocidib,"[1]; pH5.0, 3 hr",1.6%
same,Residual rate,"[1]; pH5.0, 3 hr",94.1%
same,Production rate of Alvocidib,"[1]; pH5.5, 0 hr",0.0%
same,Residual rate,"[1]; pH5.5, 0 hr",95.8%
same,Production rate of Alvocidib,"[1]; pH5.5, 0.5 hr",0.8%
same,Residual rate,"[1]; pH5.5, 0.5 hr",95.1%
same,Production rate of Alvocidib,"[1]; pH5.5, 1 hr",1.7%
same,Residual rate,"[1]; pH5.5, 1 hr",94.3%
same,Production rate of Alvocidib,"[1]; pH5.5, 2 hr",3.2%
same,Residual rate,"[1]; pH5.5, 2 hr",92.5%
same,Production rate of Alvocidib,"[1]; pH5.5, 3 hr",5.3%
same,Residual rate,"[1]; pH5.5, 3 hr",90.4%
same,Production rate of Alvocidib,"[1]; pH6.0, 0 hr",0.0%
same,Residual rate,"[1]; pH6.0, 0 hr",95.5%
same,Production rate of Alvocidib,"[1]; pH6.0, 0.5 hr",2.9%
same,Residual rate,"[1]; pH6.0, 0.5 hr",93.0%
same,Production rate of Alvocidib,"[1]; pH6.0, 1 hr",5.7%
same,Residual rate,"[1]; pH6.0, 1 hr",89.6%
same,Production rate of Alvocidib,"[1]; pH6.0, 2 hr",11.1%
same,Residual rate,"[1]; pH6.0, 2 hr",81.0%
same,Production rate of Alvocidib,"[1]; pH6.0, 3 hr",15.7%
same,Residual rate,"[1]; pH6.0, 3 hr",74.5%
same,Production rate of Alvocidib,"[1]; pH6.5, 0 hr",0.0%
same,Residual rate,"[1]; pH6.5, 0 hr",95.9%
same,Production rate of Alvocidib,"[1]; pH6.5, 0.5 hr",7.9%
same,Residual rate,"[1]; pH6.5, 0.5 hr",87.4%
same,Production rate of Alvocidib,"[1]; pH6.5, 1 hr",15.1%
same,Residual rate,"[1]; pH6.5, 1 hr",75.4%
same,Production rate of Alvocidib,"[1]; pH6.5, 2 hr",27.2%
same,Residual rate,"[1]; pH6.5, 2 hr",57.4%
same,Production rate of Alvocidib,"[1]; pH6.5, 3 hr",36.1%
same,Residual rate,"[1]; pH6.5, 3 hr",45.1%
same,Production rate of Alvocidib,"[1]; pH7.0, 0 hr",0.0%
same,Residual rate,"[1]; pH7.0, 0 hr",95.4%
same,Production rate of Alvocidib,"[1]; pH7.0, 0.5 hr",21.0%
same,Residual rate,"[1]; pH7.0, 0.5 hr",66.7%
same,Production rate of Alvocidib,"[1]; pH7.0, 1 hr",38.0%
same,Residual rate,"[1]; pH7.0, 1 hr",44.8%
same,Production rate of Alvocidib,"[1]; pH7.0, 2 hr",53.4%
same,Residual rate,"[1]; pH7.0, 2 hr",19.9%
same,Production rate of Alvocidib,"[1]; pH7.0, 3 hr",60.8%
same,Residual rate,"[1]; pH7.0, 3 hr",9.8%
same,Production rate of Alvocidib,"[1]; pH7.4, 0 hr",0.2%
same,Residual rate,"[1]; pH7.4, 0 hr",95.4%
same,Conversion to Alvocidib at pH 7.4,"[1]; pH 7.4, 37° C., up to 3 hours",rapidly converted to Alvocidib
same,Production rate of Alvocidib,"[1]; pH7.4, 0.5 hr",38.7%
same,Residual rate,"[1]; pH7.4, 0.5 hr",41.7%
same,Production rate of Alvocidib,"[1]; pH7.4, 1 hr",56.4%
same,Residual rate,"[1]; pH7.4, 1 hr",17.1%
same,Production rate of Alvocidib,"[1]; pH7.4, 2 hr",66.0%
same,Residual rate,"[1]; pH7.4, 2 hr",3.5%
same,Production rate of Alvocidib,"[1]; pH7.4, 3 hr",67.6%
same,Residual rate,"[1]; pH7.4, 3 hr",1.5%
same,Blood retention of liposome formulation compared with the corresponding solution formulation,[2],higher blood retention
